EC50 data for 35 compounds are collected here from patent publication US8680139B2 (Progenra, priority 2009, dated 2014).

In general, EC50 refers to the concentration that produces a half-maximal response.

The test deals with T1, USP7 (Homo sapiens, UniProt Q93009).
T1 construct: full length human USP7 protein; made in house
T1 sequence (Q93009 whole entry): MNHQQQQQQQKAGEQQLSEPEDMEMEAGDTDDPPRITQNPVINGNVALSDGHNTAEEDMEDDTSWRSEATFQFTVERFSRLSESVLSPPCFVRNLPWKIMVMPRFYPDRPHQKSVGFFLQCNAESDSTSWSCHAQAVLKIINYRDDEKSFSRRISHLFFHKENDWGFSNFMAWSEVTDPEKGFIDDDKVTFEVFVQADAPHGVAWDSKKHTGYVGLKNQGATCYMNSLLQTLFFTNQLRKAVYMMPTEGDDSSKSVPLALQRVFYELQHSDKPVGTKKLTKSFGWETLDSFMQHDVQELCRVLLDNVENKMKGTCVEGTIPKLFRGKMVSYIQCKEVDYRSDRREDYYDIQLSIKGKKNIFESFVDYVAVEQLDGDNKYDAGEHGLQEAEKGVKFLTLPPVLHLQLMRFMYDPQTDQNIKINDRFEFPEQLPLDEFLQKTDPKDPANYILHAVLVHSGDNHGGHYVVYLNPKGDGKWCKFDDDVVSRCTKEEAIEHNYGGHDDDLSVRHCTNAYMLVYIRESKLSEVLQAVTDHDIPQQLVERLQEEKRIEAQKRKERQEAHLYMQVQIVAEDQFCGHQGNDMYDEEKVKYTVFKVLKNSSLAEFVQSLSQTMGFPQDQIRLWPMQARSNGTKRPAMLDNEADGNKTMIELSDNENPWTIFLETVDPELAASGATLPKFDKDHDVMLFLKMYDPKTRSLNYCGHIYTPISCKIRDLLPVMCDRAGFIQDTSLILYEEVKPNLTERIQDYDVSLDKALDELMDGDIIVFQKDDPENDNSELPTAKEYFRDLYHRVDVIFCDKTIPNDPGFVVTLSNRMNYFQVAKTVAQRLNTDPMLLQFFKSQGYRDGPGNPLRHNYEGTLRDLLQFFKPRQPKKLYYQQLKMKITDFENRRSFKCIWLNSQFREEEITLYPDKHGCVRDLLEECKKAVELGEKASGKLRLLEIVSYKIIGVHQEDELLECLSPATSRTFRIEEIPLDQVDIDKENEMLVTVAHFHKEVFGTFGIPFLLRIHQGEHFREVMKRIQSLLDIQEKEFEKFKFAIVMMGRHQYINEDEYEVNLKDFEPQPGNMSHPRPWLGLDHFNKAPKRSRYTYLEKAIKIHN
As to the kind of experiment: USP7, Ub-PLA2 assay. In kind it is biochemical. The following applies: Ub-PLA2 / NBD C6-HPC fluorescence, 30 minute preincubation; read-out: EC50 for inhibition of USP7. On the procedure: The purpose of this assay is to measure the inhibition of USP7 by various compounds of the invention synthesized according to the above-described methods. […] The vehicle control was 100% (v/v) DMSO. 1.6 μL aliquots of the diluted test compound and controls were dispensed into individual wells in a black walled 96 well plate. […] The data were normalized within a plate relative to the control wells using the equation % inhibition=(100−(((RFUcompound−RFUmean NEM) / (RFUmean DMSO−RFUmean NEM))×100)).
`CN(C)CCC(NC(=O)c1cc([N+](=O)[O-])c(Sc2c(Cl)cncc2Cl)s1)c1ccccc1` (centres unmarked) [Example 200, 5-((3,5-dichloropyridin-4-yl)thio)-N-(3-(dimethylamino)-1-phenylpropyl)-4-nitrothiophene-2-carboxamide]: the EC50 was at most 1000 nM.

For `O=C(Nc1cc(-c2ccccc2)n[nH]1)c1cc([N+](=O)[O-])c(Sc2c(Cl)cncc2Cl)s1` [Example 71, 5-((3,5-dichloropyridin-4-yl)thio)-4-nitro-N-(3-phenyl-1H-pyrazol-5-yl)thiophene-2-carboxamide], the concentration giving a half-maximal response (EC50) was 1000 to 10000 nM.

For `O=C(c1cc([N+](=O)[O-])c(Sc2c(Cl)cncc2Cl)s1)N1CCC(F)CC1` [Example 74, (5-((3,5-dichloropyridin-4-yl)thio)-4-nitrothiophen-2-yl)(4-fluoropiperidin-1-yl)methanone], the EC50 lay in the range of 1000 to 10000 nM.

In the case of `O=[N+]([O-])c1cc(Br)sc1Sc1ccc(Cl)cc1Cl` [Example 33, 5-bromo-2-(2,4-dichlorophenyl)sulfanyl-3-nitro-thiophene], the EC50 was over 10000 nM.

As to `COC(=O)c1cc([N+](=O)[O-])c(Oc2c(Cl)cncc2Cl)s1` [Example 258, Methyl 5-((3,5-dichloropyridin-4-yl)oxy)-4-nitrothiophene-2-carboxylate], the EC50 lay in the range of 1000 to 10000 nM.

As to `O=C(Nc1cccc(Cl)c1)c1cc([N+](=O)[O-])c(Sc2c(Cl)cncc2Cl)s1` [Example 142, N-(3-chlorophenyl)-5-((3,5-dichloropyridin-4-yl)thio)-4-nitrothiophene-2-carboxamide], the EC50 is at most 1000 nM.

On to `Cc1ccsc1CNC(=O)c1cc([N+](=O)[O-])c(Sc2c(Cl)cncc2Cl)s1` [Example 56, 5-((3,5-dichloropyridin-4-yl)thio)-N-((3-methylthiophen-2-yl)methyl)-4-nitrothiophene-2-carboxamide], for which the EC50 is 1000 to 10000 nM.

`O=C(NCCCN1CCCC(O)C1)c1cc([N+](=O)[O-])c(Sc2c(Cl)cncc2Cl)s1` (centres unmarked) [Example 223, 5-((3,5-dichloropyridin-4-yl)thio)-N-(3-(3-hydroxypiperidin-1-yl)propyl)-4-nitrothiophene-2-carboxamide]: the EC50 fell in the range of 1000 to 10000 nM.

Regarding `O=C(NC12CC3CC(CC(C3)C1)C2)c1cc([N+](=O)[O-])c(Sc2c(Cl)cncc2Cl)s1` [Example 76, N-((3s,5s,7s)-adamantan-1-yl)-5-((3,5-dichloropyridin-4-yl)thio)-4-nitrothiophene-2-carboxamide], the EC50 was over 10000 nM.

`CC(C)(C)OC(=O)Nc1ccc(NC(=O)c2cc([N+](=O)[O-])c(Sc3c(Cl)cncc3Cl)s2)cc1` [Example 234, tert-butyl (4-(5-((3,5-dichloropyridin-4-yl)thio)-4-nitrothiophene-2-carboxamido)phenyl)carbamate]: the EC50 is at most 1000 nM.

Take `CC(=O)c1cc([N+](=O)[O-])c(Sc2ccc(Br)cc2)s1` [Example 12, 1-[5-(4-Bromophenylsulfanyl)-4-nitro-2-thienyl]ethanone]: the EC50 lay in the range of 1000 to 10000 nM.

Take `O=C(Nc1ccc(F)c(Cl)c1)c1cc([N+](=O)[O-])c(Sc2c(Cl)cncc2Cl)s1` [Example 137, N-(3-chloro-4-fluorophenyl)-5-((3,5-dichloropyridin-4-yl)thio)-4-nitrothiophene-2-carboxamide]: the EC50 is at most 1000 nM.

Consider `O=C(NC1CC1)c1cc([N+](=O)[O-])c(Sc2c(Cl)cncc2Cl)s1` [Example 124, N-cyclopropyl-5-((3,5-dichloropyridin-4-yl)thio)-4-nitrothiophene-2-carboxamide], for which the EC50 is at most 1000 nM.

On to `CC(=O)c1cc([N+](=O)[O-])c(Sc2cccc(Cl)c2)s1` [Example 6, 1-[5-(3-Chlorophenylsulfanyl)-4-nitro-2-thienyl]ethanone], for which the EC50 was in the range of 1000 to 10000 nM.

For `O=C(NCCc1cccs1)c1cc([N+](=O)[O-])c(Sc2c(Cl)cncc2Cl)s1` [Example 55, 5-((3,5-dichloropyridin-4-yl)thio)-4-nitro-N-(2-(thiophen-2-yl)ethyl)thiophene-2-carboxamide], the half-maximal effective concentration (EC50) lay in the range of 1000 to 10000 nM.

Regarding `O=C(NCc1cccc(OC(F)(F)F)c1)c1cc([N+](=O)[O-])c(Sc2c(Cl)cncc2Cl)s1` [Example 68, 5-((3,5-dichloropyridin-4-yl)thio)-4-nitro-N-(3-(trifluoromethoxy)benzyl)thiophene-2-carboxamide], the EC50 was in the range of 1000 to 10000 nM.

In the case of `O=C(NCCc1ccccc1F)c1cc([N+](=O)[O-])c(Sc2c(Cl)cncc2Cl)s1` [Example 111, 5-((3,5-dichloropyridin-4-yl)thio)-N-(2-fluorophenethyl)-4-nitrothiophene-2-carboxamide], the EC50 was at most 1000 nM.

Take `O=C(NCc1ccco1)c1cc([N+](=O)[O-])c(Sc2c(Cl)cncc2Cl)s1` [Example 52, 5-((3,5-dichloropyridin-4-yl)thio)-N-(furan-2-ylmethyl)-4-nitrothiophene-2-carboxamide]: the EC50 was 1000 to 10000 nM.

For `CC1(C)CCN(C(=O)c2cc([N+](=O)[O-])c(Sc3c(Cl)cncc3Cl)s2)CC1` [Example 80, (5-((3,5-dichloropyridin-4-yl)thio)-4-nitrothiophen-2-yl)(4,4-dimethylpiperidin-1-yl)methanone], the EC50 fell in the range of 1000 to 10000 nM.

For the compound `CN(C)CCNC(=O)c1cc([N+](=O)[O-])c(Sc2c(Cl)cncc2Cl)s1` [Example 48, 5-[(3,5-dichloro-4-pyridyl)sulfanyl]-N-(2-dimethylaminoethyl)-4-nitro-thiophene-2-carboxamide], the EC50 lay within 1000 to 10000 nM.

As for `O=C(NCCCN1CCCC1)c1cc([N+](=O)[O-])c(Sc2c(Cl)cncc2Cl)s1` [Example 191, 5-((3,5-dichloropyridin-4-yl)thio)-4-nitro-N-(3-(pyrrolidin-1-yl)propyl)thiophene-2-carboxamide], the EC50 was at most 1000 nM.

In the case of `CC1(C)CC(NC(=O)c2cc([N+](=O)[O-])c(Sc3c(Cl)cncc3Cl)s2)CC(C)(C)N1` [Example 178, 5-((3,5-dichloropyridin-4-yl)thio)-4-nitro-N-(2,2,6,6-tetramethylpiperidin-4-yl)thiophene-2-carboxamide], the EC50 is at most 1000 nM.

`O=C(Nc1ccc(F)cc1F)c1cc([N+](=O)[O-])c(Sc2c(Cl)cncc2Cl)s1` [Example 143, 5-((3,5-dichloropyridin-4-yl)thio)-N-(2,4-difluorophenyl)-4-nitrothiophene-2-carboxamide]: the EC50 is at most 1000 nM.

For `COc1ccc(CNC(C)c2cc([N+](=O)[O-])c(Sc3ccc(Cl)cc3Cl)s2)cc1` (centres unmarked) [Example 30, 1-[5-(2,4-dichlorophenyl)sulfanyl-4-nitro-2-thienyl]-N-[(4-methoxyphenyl)methyl]ethanamine], the EC50 was over 10000 nM.

Turning to `O=C(Nc1ccc2c(c1)OCO2)c1cc([N+](=O)[O-])c(Sc2c(Cl)cncc2Cl)s1` [Example 158, N-(benzo[d][1,3]dioxol-5-yl)-5-((3,5-dichloropyridin-4-yl)thio)-4-nitrothiophene-2-carboxamide], the EC50 was at most 1000 nM.

As to `CC(=O)c1cc([N+](=O)[O-])c(Sc2cccc3ccccc23)s1` [Example 5, 1-[5-(Naphth-1-ylsulfanyl)-4-nitro-2-thienyl]ethanone], the EC50 is over 10000 nM.

`CSc1ccc(CNC(=O)c2cc([N+](=O)[O-])c(Sc3c(Cl)cncc3Cl)s2)cc1` [Example 264, 5-((3,5-dichloropyridin-4-yl)thio)-N-(4-(methylthio)benzyl)-4-nitrothiophene-2-carboxamide]: the concentration giving a half-maximal response (EC50) was at most 1000 nM.

`O=C(NCc1cccc(Cl)c1)c1cc([N+](=O)[O-])c(Sc2c(Cl)cncc2Cl)s1` [Example 57, N-(3-chlorobenzyl)-5-((3,5-dichloropyridin-4-yl)thio)-4-nitrothiophene-2-carboxamide]: the EC50 fell in the range of 1000 to 10000 nM.

As to `O=C(NCc1ccc(-c2ccccc2)cc1)c1cc([N+](=O)[O-])c(Sc2c(Cl)cncc2Cl)s1` [Example 63, N-([1,1′-biphenyl]-4-ylmethyl)-5-((3,5-dichloropyridin-4-yl)thio)-4-nitrothiophene-2-carboxamide], the EC50 fell in the range of 1000 to 10000 nM.

For the compound `COc1cccc(NC(=O)c2cc([N+](=O)[O-])c(Sc3c(Cl)cncc3Cl)s2)c1` [Example 156, 5-((3,5-dichloropyridin-4-yl)thio)-N-(3-methoxyphenyl)-4-nitrothiophene-2-carboxamide], the EC50 was at most 1000 nM.

With `Cc1cccc(CNC(=O)c2cc([N+](=O)[O-])c(Sc3c(Cl)cncc3Cl)s2)c1` [Example 150, 5-((3,5-dichloropyridin-4-yl)thio)-N-(3-methylbenzyl)-4-nitrothiophene-2-carboxamide], the EC50 is at most 1000 nM.

In the case of `O=C(Nc1ccc(Cl)cc1Cl)c1cc([N+](=O)[O-])c(Sc2c(Cl)cncc2Cl)s1` [Example 141, N-(2,4-dichlorophenyl)-5-((3,5-dichloropyridin-4-yl)thio)-4-nitrothiophene-2-carboxamide], the EC50 is at most 1000 nM.

For `CS(=O)(=O)c1cccc(CNC(=O)c2cc([N+](=O)[O-])c(Sc3c(Cl)cncc3Cl)s2)c1` [Example 125, 5-((3,5-dichloropyridin-4-yl)thio)-N-(3-(methylsulfonyl)benzyl)-4-nitrothiophene-2-carboxamide], the 50% effective concentration (EC50) is at most 1000 nM.

Regarding `CCCN1CCC(NC(=O)c2cc([N+](=O)[O-])c(Sc3c(Cl)cncc3Cl)s2)CC1` [Example 230, 5-((3,5-dichloropyridin-4-yl)thio)-4-nitro-N-(1-propylpiperidin-4-yl)thiophene-2-carboxamide], the EC50 is at most 1000 nM.

For the compound `O=C(NCc1ccc(Br)cc1)c1cc([N+](=O)[O-])c(Sc2c(Cl)cncc2Cl)s1` [Example 118, N-(4-bromobenzyl)-5-((3,5-dichloropyridin-4-yl)thio)-4-nitrothiophene-2-carboxamide], the half-maximal effective concentration (EC50) was at most 1000 nM.
